Experiments:
[1] = tested on: human iPS cells (QHJI01 line and 1231A3 line); experiment: MEK inhibitors PD184352, U0126, TAK-733, AZD-8330 in first step (Example 10); type: cell-based; conditions: 6 days; 1 μM PD0325901; 1.5, 3, 6 μM PD184352; 5, 10 μM U0126; 0.3 μM TAK-733; 0.3 μM AZD-8330; day 49 and day 50 of culture
Text: The medium used was “STEMFIT™” AK03N medium (Ajinomoto Co., Inc.) (hereinafter AK03N medium).

[2] = tested on: human iPS cells (QHJI01 line); experiment: Differentiation induction effect of Nodal or Wnt signal transduction pathway inhibitor alone in second step (Example 12); type: cell-based; conditions: second step day 1 to day 12 with 5 μM SB-431542 and/or 3 μM CKI-7, after first step with 1 μM PD0325901 for 6 days; day 43 of culture
Text: (§1) 2014 Jan. 8; 4: 3594”. The medium used was “STEMFIT™” AK03N medium (Ajinomoto Co., Inc.) (hereinafter AK03N medium).
In the second step, the following 3 kinds of media were used.

[3] = tested on: human iPS cells (1231A3 line); experiment: Production of RPE cells including MEK inhibitor or FGF receptor inhibitor treatment step, plate observation (Example 14); type: cell-based; conditions: PD0325901 1 μM or PD173074 100 nM, 6 days; day 43 of culture
Text: as §1

[4] = tested on: human iPS cells (QHJI01 line); experiment: Inhibitor concentrations in MEK inhibitor or FGF receptor inhibitor treatment step (Example 8); type: cell-based; conditions: 6 days, day 36 and day 49 of culture
Text: as §1

[5] = tested on: human iPS cells (QHJI01 line); experiment: Number of days of exposure of each inhibitor in first step (Example 5); type: cell-based; conditions: day 48 of culture; for brown-black cell population: 4 days-6 days of exposure; for proportion of cells that developed color in the whole well versus number of exposure days: exposure 1 day to 6 days; for brown-black cell populations: exposure for not less than 2 days, PD0325901 1 μM or PD173074 100 nM
Text: as §1

[6] = tested on: human iPS cells (QHJI01 line and 1231A3 line); experiment: FGF receptor inhibitor SU5402 in first step (Example 11); type: cell-based; conditions: 6 days; 100 nM PD173074; 5, 10, 20 μM SU5402; day 49 of culture
Text: as §1

[7] = tested on: human iPS cells (201B7 line and 1231A3 line); experiment: Production of RPE cells from human iPS cells including FGF receptor inhibitor treatment step (Example 2); type: cell-based; conditions: PD173074 100 nM
Text: In one embodiment, to study the effect of the FGF receptor inhibitor in a medium free of a factor for maintaining undifferentiated state (bFGF), StemSure hPSC Medium Δ (Wako Pure Chemical Industries, Ltd.) (hereinafter StemSure hPSC Medium Δ w/o bFGF) not added with bFGF was used.

[8] = tested on: human iPS cells (Ff-I01 line and QHJI01 line); experiment: Production of RPE cells including MEK inhibitor or FGF receptor inhibitor treatment step using iPS cells Ff-I01, QHJI01 (Example 4); type: cell-based; conditions: PD0325901 1 μM or PD173074 100 nM, 6 days, AK03N medium; day 43 of culture; both Ff-I01 and QHJI01 lines
Text: as §1

[9] = tested on: human iPS cells (201B7 line and 1231A3 line); experiment: Production of RPE cells including combined treatment step of MEK inhibitor and/or FGF receptor inhibitor and various inhibitors or agonist (Example 3); type: cell-based; conditions: first step 6 days in AK03 medium; observed 38 to 47 days of culture; FIG. 7
Description: (§2) The medium used was “STEMFIT™” AK03 medium (Ajinomoto Co., Inc.) (hereinafter AK03 medium).
Production of retinal pigment epithelial (RPE) cells including a combined treatment step of MEK inhibitor and/or FGF receptor inhibitor, and various inhibitors, signal transduction pathway inhibitor or signal transduction pathway agonist was performed as follows. iPS cells under culture for maintaining undifferentiated state were treated with 0.5×TrypLE select, dissociated using a cell scraper, dispersed to single cells by pipetting, seeded in a 6-well culture plate coated with iMatrix-511 (Nippi) (0.5 μg/cm^2) at 1.2×10^4 cells per 1 well and cultured in a ROCK inhibitor [10 μM Y-27632 (Wako Pure Chemical Industries, Ltd.)]-containing AK03 medium under 37° C., 5% CO2 conditions. The next day of cell seeding, PD0325901 (SIGMA) (final concentration 1 μM) as an MEK inhibitor, PD173074 (SIGMA) (final concentration 100 nM) as an FGF receptor inhibitor, LDN193189 (STEMGENT) (final concentration 100 nM) as a BMP receptor inhibitor, SAG (Enzo Life Sciences) (final concentration 30 nM) as an Shh signal transduction pathway agonist, and Go6983 (SIGMA) (final concentration 2 μM) as a PKC inhibitor in the combination shown in FIG. 7 were added to the medium (start of the first step) and the cells were exposed thereto for 6 days (completion of the first step). […]

[10] = tested on: human iPS cells (QHJI01 line); experiment: Seeded cell number in transition of first step to second step (Example 9); type: cell-based; conditions: all seeded cell number (0.2, 0.4, 0.6, 1.0, 2.0, or 4.0×10^4 cells/cm^2) at start of second step; PD0325901 1 μM or PD173074 100 nM, 6 days; day 49 of culture
Text: as §1

RPE65, BEST1, CRALBP = experiment: RT-PCR of retinal pigment epithelial cell markers in produced RPE cells (Example 14); type: cell-based, human; conditions: PD0325901 1 μM or PD173074 100 nM, 6 days; cells collected day 43 of culture
Description: After observation on day 43 of culture, the cells were collected, RNA was extracted and RT-PCR was performed. RNeasy Micro Kit (QIAGEN) was used for RNA extraction, Oligo (dT)12-18 Primer (Invitrogen) and SuperScript III Reverse Transcriptase (Invitrogen) were used for reverse transcription reaction, and Blend Taq-Plus- (TOYOBO) was used for PCR. The primer sequences of RPE65, BEST1, CRLBP, GAPDH are as described below. […] NO: 1), […] NO: 2), […] NO: 3), […] NO: 4), CRALBP-[…] NO: 5), CRALBP-[…] NO: 6), […] NO: 7), […] NO: 8). The number of cycles of the PCR reaction was 30 cycles for RPE65, BEST1, GAPDH, and 35 cycles for CRALBP. PCR products were detected as a single band by agarose gel electrophoresis at near 369 bp for RPE65, near 261 bp for BEST1, near 341 bp for CRALBP, and near 452 bp for GAPDH. As a positive control, primary human RPE (hRPE) was used and, as a negative control, iPS cells (undifferentiated iPSC) cultured under conditions for maintaining undifferentiated state were used.

[11] = tested on: human iPS cells (201B7 line and 1231A3 line); experiment: Production of RPE cells from human iPS cells including MEK inhibitor treatment step (Example 1); type: cell-based
Description: The medium used was “STEMFIT™” AK03 medium (Ajinomoto Co., Inc.) (hereinafter AK03 medium) or Essential 8 medium (Life Technologies).
Production of retinal pigment epithelial (RPE) cells including an MEK inhibitor treatment step was performed as follows. iPS cells under culture for maintaining undifferentiated state were treated with 0.5×TrypLE select (mixture of equal amounts of TrypLE select (Life Technologies)) and 0.5 mM EDTA/PBS(−)), dissociated using a cell scraper, dispersed to single cells by pipetting, seeded in a 6-well culture plate coated with iMatrix-511 (Nippi) (0.5 μg/cm^2) at 1.2×10^4 cells per 1 well, and cultured in an AK03 medium or Essential 8 medium containing a ROCK inhibitor [10 μM Y-27632 (Wako Pure Chemical Industries, Ltd.)] under 37° C., 5% CO2 conditions. On the next day of seeding, PD0325901 (SIGMA) as an MEK inhibitor was added to the AK03 medium at a final concentration of 1 μM or Essential 8 medium at a final concentration of 0.03 μM (start of the first step) and the cells were exposed thereto for 6 days (completion of the first step). […]

[12] = tested on: human iPS cells (1231A3 line); experiment: MEK inhibitor exposure period in MEK inhibitor treatment step (Example 6); type: cell-based; conditions: PD0325901 1 μM, day 37 of culture
Description: as §2
Production of retinal pigment epithelial (RPE) cells including an MEK inhibitor treatment step was performed as follows. iPS cells under culture for maintaining undifferentiated state were treated with 0.5×TrypLE select (mixture of equal amounts of TrypLE select (Life Technologies) and 0.5 mM EDTA/PBS(−)), dissociated using a cell scraper, dispersed to single cells by pipetting, seeded in a 6-well culture plate coated with iMatrix-511 (Nippi) (0.5 μg/cm^2) at 1.2×10^4 cells per 1 well and cultured in a ROCK inhibitor [10 μM Y-27632 (Wako Pure Chemical Industries, Ltd.)]-containing AK03 medium under 37° C., 5% CO2 conditions. On the next day of seeding, 4 days later or 6 days later, PD0325901 (SIGMA) (final concentration 1 μM) as an MEK inhibitor was added to the AK03 medium (start of the first step) and the cells were exposed thereto for 6 days, 3 days or 1 day (completion of the first step). In addition, cells exposed to MEK inhibitor for 6 days were treated with 0.5×TrypLE select, dissociated using a cell scraper, dispersed to single cells by pipetting, seeded in a 6-well culture plate coated with iMatrix-511 (Nippi) (0.5 μg/cm^2) at 0.8×10^4 cells per 1 well and further cultured for 7 days in AK03 medium containing Y-27632 (final concentration 10 μM) and PD0325901 (final concentration 1 μM) under 37° C., 5% CO2 conditions, whereby the cells were exposed to the MEK inhibitor for 13 days (completion of the first step). Thereafter, the cells were treated with 0.5×TrypLE select, dissociated using a cell scraper, dispersed to single cells by pipetting, seeded in a 6-well culture plate coated with iMatrix-511 (0.5 μg/cm^2) at 1.2×10^6 cells per 1 well and cultured under 37° C., 5% CO2 conditions (start of the second step). […]

Compound: Cc1cc(C(=O)NOCCO)c(Nc2ccc(I)cc2F)n(C)c1=O [AZD-8330, 2-(2-fluoro-4-iodophenylamino)-N-(2-hydroxyethoxy)-1,5-dimethyl-6-oxo-1,6-dihydropyridine-3-carboxamide]
- emergence of brown-black cell population [1]: emergence of a brown-black cell population could be confirmed over a wide area

Compound: NC(=O)c1ccc(-c2nc(-c3ccc4c(c3)OCO4)c(-c3ccccn3)[nH]2)cc1 [NODALi, 4-[4-(1,3-Benzodioxol-5-yl)-5-(pyridin-2-yl)-1H-imidazol-2-yl]benzamide]
- emergence of cells showing typical characteristics of RPE cell [2]: emergence of cells showing the same level of typical characteristics of RPE cell such as a brown-black, polygonal, cobblestone-like morphology could be confirmed

Compound: CCN(CC)CCCCNc1ncc2cc(-c3cc(OC)cc(OC)c3)c(NC(=O)NC(C)(C)C)nc2n1 [PD173074, N-[2-[[4-(Diethylamino)butyl]amino]-6-(3,5-dimethoxyphenyl)pyrido[2,3-d]pyrimidin-7-yl]-N′-(1,1-dimethylethyl)urea]
- emergence of brown-black cell population [3]: emergence of a brown-black cell population could be confirmed over a wide area
- emergence of brown-black cell population ([4]; all FGF receptor inhibitor concentrations (25-400 nM)): emergence of a brown-black cell population could be confirmed over a wide area
- brown-black cell population [5]: a remarkable increase in the brown-black cell population was seen
- proportion of cells that developed color in the whole well versus number of exposure days [5]: the proportion of cells that developed color in the whole well increased as the number of exposure day increased up to 6 days of exposure
- brown-black cell populations [5]: brown-black cell populations increased
- emergence of brown-black cell population [6]: emergence of a brown-black cell population could be confirmed over a wide area
- cell morphology by microscopic observation ([7]; 6 days first step, 201B7, FIG. 5): the cells showed typical characteristics of RPE cell such as a brown-black, polygonal, cobblestone-like morphology
- emergence of brown-black cell population on culture plate ([7]; 6 days, AK03 medium, Essential 8 medium or StemSure hPSC Medium Δ w/o bFGF, observed 38 to 42 days, 201B7 line and/or 1231A3 line): emergence of a brown-black cell population could be confirmed over a wide area
- emergence of brown-black cell population on culture plate [8]: emergence of a brown-black cell population could be confirmed over a wide area
- emergence of RPE cells showing typical characteristics [9]: emergence of RPE cells showing typical characteristics of RPE cell such as a brown-black, polygonal, cobblestone-like morphology could be confirmed
- emergence of brown-black cell population [10]: emergence of a brown-black cell population could be confirmed over a wide area
- bands of retinal pigment epithelial cell markers RPE65, BEST1, CRALBP by RT-PCR (RPE65, BEST1, CRALBP): clear bands could be confirmed

Compound: O=C(NOCC1CC1)c1ccc(F)c(F)c1Nc1ccc(I)cc1Cl [PD184352]
- emergence of brown-black cell population [1]: emergence of a brown-black cell population could be confirmed over a wide area

Compound: O=C(NOC[C@H](O)CO)c1ccc(F)c(F)c1Nc1ccc(I)cc1F [PD0325901, N-[(2R)-2,3-Dihydroxypropoxy]-3,4-difluoro-2-[(2-fluoro-4-iodophenyl)amino]-benzamide]
- emergence of brown-black cell population [3]: emergence of a brown-black cell population could be confirmed over a wide area
- emergence of brown-black cell population ([4]; all MEK inhibitor concentrations (0.25-4 μM)): emergence of a brown-black cell population could be confirmed over a wide area
- emergence of brown-black cell population on culture plate ([11]; PD0325901 1 μM in AK03 medium or 0.03 μM in Essential 8 medium, exposed 6 days, observed 38 to 42 days of culture, both 201B7 and 1231A3 lines): emergence of a brown-black cell population could be confirmed over a wide area
- cell morphology by microscopic observation ([11]; PD0325901 1 μM, 6 days first step, 201B7, FIG. 2): the cells showed typical characteristics of RPE cell such as a brown-black, polygonal, cobblestone-like morphology
- brown-black cell population [5]: a remarkable increase in the brown-black cell population was seen
- proportion of cells that developed color in the whole well versus number of exposure days [5]: the proportion of cells that developed color in the whole well increased as the number of exposure day increased up to 6 days of exposure
- brown-black cell populations [5]: brown-black cell populations increased
- emergence of brown-black cell population ([12]; exposure for 3 days): emergence of a brown-black cell population could be confirmed over a wide area
- emergence of brown-black cell population ([12]; exposure for 6 days): emergence of a brown-black cell population could be confirmed over a wide area
- emergence of colored cell population ([12]; exposure for 13 days): sufficient emergence of colored cell population was also confirmed
- cells showing typical characteristics of RPE cell ([12]; exposure for one day): almost no cell that showed typical characteristics of RPE cell
- emergence of brown-black cell population on culture plate [8]: emergence of a brown-black cell population could be confirmed over a wide area
- emergence of brown-black cell population [1]: emergence of a brown-black cell population could be confirmed over a wide area
- emergence of RPE cells showing typical characteristics [9]: emergence of RPE cells showing typical characteristics of RPE cell such as a brown-black, polygonal, cobblestone-like morphology could be confirmed
- emergence of brown-black cell population [10]: emergence of a brown-black cell population could be confirmed over a wide area
- bands of retinal pigment epithelial cell markers RPE65, BEST1, CRALBP by RT-PCR (RPE65, BEST1, CRALBP): clear bands could be confirmed

Compound: Cc1c[nH]c(C=C2C(=O)Nc3ccccc32)c1CCC(=O)O [SU5402, 2-[(1,2-Dihydro-2-oxo-3H-indol-3-ylidene)methyl]-4-methyl-1H-pyrrole-3-propanoic acid]
- emergence of brown-black cell population [6]: emergence of a brown-black cell population could be confirmed over a wide area

Compound: Cn1c(=O)c(F)c(Nc2ccc(I)cc2F)c2c(=O)n(C[C@@H](O)CO)cnc21 [TAK-733, (R)-3-(2,3-dihydroxypropyl)-6-fluoro-5-(2-fluoro-4-iodophenylamino)-8-methylpyrido[2,3-d]pyrimidine-4,7(3H, 8H)-dione]
- emergence of brown-black cell population [1]: emergence of a brown-black cell population could be confirmed over a wide area

Compound: N#CC(=C(N)Sc1ccccc1N)C(C#N)=C(N)Sc1ccccc1N [U0126, 1,4-Diamino-2,3-dicyano-1,4-bis[2-aminophenylthio]butadiene]
- emergence of brown-black cell population [1]: emergence of a brown-black cell population could be confirmed over a wide area

Compound: NCCNS(=O)(=O)c1ccc(Cl)c2ccncc12 [WNTi, N-(2-Aminoethyl)-5-chloroisoquinoline-8-sulfonamide]
- emergence of cells showing typical characteristics of RPE cell [2]: the brown-black area in the whole well decreased; however, emergence of a sufficient number of cells showing the typical characteristics of RPE cell could be confirmed
